13 molecules from patent US20260297085A1, “1 H-PYRROLO[2,3-B]PYRIDIN-4-YL]-2-OXOPYRROLIDINE-3-CARBONITRILE DERIVATIVES AS TYROSINE KINASE 2 (TYK2) INHIBITORS FOR THE TREATMENT OF INFLAMMATORY DISEASES” (BIOGEN MA INC., priority 2023, published 2026) can be followed below.

Assay [1] deals with T1, human JAK3 kinase domain (JH1) (Homo sapiens, UniProt P52333).
T1 construct: recombinantly generated catalytic kinase (also known as JH1) domain of human JAK1, JAK2, JAK3 and TYK2
Put plainly: JH1 biochemical assay for JAK3 (ADP-Glo kinase assay, recombinant JH1 catalytic domain, JAK3-974 peptide, 4 μM ATP). The conditions noted are these: JAK3 JH1, ADP-Glo. The gist of the method: (§1)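 ADP-Glo luminescence with 50 μM peptide and 100 min reactions: JAK1 4 nM with JAK3-342 peptide; JAK2, JAK3 and TYK2 at 0.2, 0.3 and 2 nM with JAK3-974 peptide. Compounds tested from 10 or 1 μM top, 11 points, 3-fold. IC50 from a 4-parameter logistic fit of normalized activity.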

Assay [2] concerns the target T2, human JAK2 kinase domain (JH1) (Homo sapiens, UniProt O60674).
T2 construct: recombinantly generated catalytic kinase (also known as JH1) domain of human JAK1, JAK2, JAK3 and TYK2
Put plainly: JH1 biochemical assay for JAK2 (ADP-Glo kinase assay, recombinant JH1 catalytic domain, JAK3-974 peptide, 15 μM ATP). The following applies: JAK2 JH1, ADP-Glo. The gist of the method:
as §1

Assay [3] addresses T3, human JAK1 kinase domain (JH1) (Homo sapiens, UniProt P23458).
T3 construct: recombinantly generated catalytic kinase (also known as JH1) domain of human JAK1, JAK2, JAK3 and TYK2
Put plainly: JH1 biochemical assay for JAK1 (ADP-Glo kinase assay, recombinant JH1 catalytic domain, JAK3-342 peptide, 35 μM ATP). The following applies: JAK1 JH1, ADP-Glo. In a few lines:
as §1

Assay [4] has as its target T4, human TYK2 kinase domain (JH1) (Homo sapiens, UniProt P29597).
T4 construct: recombinantly generated catalytic kinase (also known as JH1) domain of human JAK1, JAK2, JAK3 and TYK2
T4 sequence (P29597 897-1176 limits assumed): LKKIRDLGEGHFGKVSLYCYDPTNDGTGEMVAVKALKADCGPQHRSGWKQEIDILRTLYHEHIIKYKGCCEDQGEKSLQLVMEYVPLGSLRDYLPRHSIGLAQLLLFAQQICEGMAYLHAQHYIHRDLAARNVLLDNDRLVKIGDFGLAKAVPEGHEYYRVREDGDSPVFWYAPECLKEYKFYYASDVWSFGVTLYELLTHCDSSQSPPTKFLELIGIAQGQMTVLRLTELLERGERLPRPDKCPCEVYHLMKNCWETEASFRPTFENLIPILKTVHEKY
Put plainly: JH1 biochemical assay for TYK2 (ADP-Glo kinase assay, recombinant JH1 catalytic domain, JAK3-974 peptide, 10 μM ATP). The following applies: TYK2 JH1, ADP-Glo. The gist of the method: as §1

The target in assay [5] is JAK1 kinase activity on STAT3 in TF1 cells (Homo sapiens, UniProt P23458). Put plainly: pSTAT3 cell assay (MSD; TF1 cells, 30 ng/mL IL-6 stimulation). The following applies: 30 ng/mL IL-6, 15 minutes. It counts as cell-based. The gist of the method:
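Readout is pSTAT3 in lysates, quantified on an MSD plate assay using anti-STAT3 antibodies. Before lysis, TF1 cells had been serum-starved, exposed to compound for 1 hour across ten four-fold dilutions starting at 10 μM, and given IL-6 for 15 minutes.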

The target in assay [6] is JAK2 kinase activity on STAT5 in TF1 cells (Homo sapiens, UniProt O60674). Put plainly: pSTAT5 cell assay (MSD; TF1 cells, 30 ng/mL IL-3 stimulation). It counts as cell-based. The following applies: 30 ng/mL IL-3, 15 minutes. In a few lines: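 Serum-starved TF1 cells with native JAK2/STAT5 were pretreated 1 h with compound (10-point four-fold dilutions from 10 μM), then stimulated 15 min with 30 ng/mL IL-3. pSTAT5 in lysates quantified by MSD immunoassay; normalized percent activity fitted to a 4-parameter logistic curve for IC50.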
Sequence of JAK2 kinase activity on STAT5 in TF1 cells (O60674 whole entry): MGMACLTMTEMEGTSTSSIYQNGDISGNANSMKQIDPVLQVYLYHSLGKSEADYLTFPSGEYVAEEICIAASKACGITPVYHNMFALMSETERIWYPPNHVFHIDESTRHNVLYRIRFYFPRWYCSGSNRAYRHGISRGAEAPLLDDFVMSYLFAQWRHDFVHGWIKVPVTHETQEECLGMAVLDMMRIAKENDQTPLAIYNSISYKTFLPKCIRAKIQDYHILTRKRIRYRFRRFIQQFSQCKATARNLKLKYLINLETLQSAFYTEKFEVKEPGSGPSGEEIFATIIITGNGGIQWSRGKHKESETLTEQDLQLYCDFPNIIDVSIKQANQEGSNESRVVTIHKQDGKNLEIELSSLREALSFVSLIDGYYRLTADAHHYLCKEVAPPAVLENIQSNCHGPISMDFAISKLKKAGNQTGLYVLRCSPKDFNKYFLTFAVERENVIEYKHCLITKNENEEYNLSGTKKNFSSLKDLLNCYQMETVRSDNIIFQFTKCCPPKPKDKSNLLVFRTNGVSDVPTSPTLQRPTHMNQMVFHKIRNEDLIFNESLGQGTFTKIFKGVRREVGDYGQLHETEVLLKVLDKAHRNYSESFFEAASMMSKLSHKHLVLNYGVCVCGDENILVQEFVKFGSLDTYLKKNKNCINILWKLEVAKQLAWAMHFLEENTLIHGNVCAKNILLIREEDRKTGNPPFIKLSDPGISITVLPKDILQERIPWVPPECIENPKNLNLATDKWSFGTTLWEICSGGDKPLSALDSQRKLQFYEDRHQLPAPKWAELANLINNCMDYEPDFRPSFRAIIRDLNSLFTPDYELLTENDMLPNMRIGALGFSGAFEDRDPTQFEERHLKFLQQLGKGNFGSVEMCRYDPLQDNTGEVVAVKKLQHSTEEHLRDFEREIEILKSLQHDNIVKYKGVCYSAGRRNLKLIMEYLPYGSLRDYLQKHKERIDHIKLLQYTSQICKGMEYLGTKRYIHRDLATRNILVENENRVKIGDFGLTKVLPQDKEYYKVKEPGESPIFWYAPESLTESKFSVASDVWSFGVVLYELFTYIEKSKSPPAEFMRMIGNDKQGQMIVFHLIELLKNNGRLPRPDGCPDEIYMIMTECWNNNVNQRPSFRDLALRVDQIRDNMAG

For assay [7], the target named is Tyk2 kinase activity on STAT4 in NK92 cells (Homo sapiens, UniProt P29597). Put plainly: pSTAT4 cell assay (MSD; NK92 cells, 30 ng/mL IL2 stimulation). The assay is classed as cell-based. The conditions noted are these: 30 ng/mL IL2, 15 minutes. In a few lines:
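Serum-starved NK92 cells, which natively express Tyk2 and STAT4, were pretreated for 1 h with a 10-point 4-fold dilution series from 10 μM. They were then stimulated with 30 ng/mL IL2 for 15 min. Phospho-STAT in lysates was quantified by MSD with anti-STAT4 antibodies, and IC50 was obtained from 4-parameter logistic fits.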

T1 sequence (P52333 822-1111 limits assumed): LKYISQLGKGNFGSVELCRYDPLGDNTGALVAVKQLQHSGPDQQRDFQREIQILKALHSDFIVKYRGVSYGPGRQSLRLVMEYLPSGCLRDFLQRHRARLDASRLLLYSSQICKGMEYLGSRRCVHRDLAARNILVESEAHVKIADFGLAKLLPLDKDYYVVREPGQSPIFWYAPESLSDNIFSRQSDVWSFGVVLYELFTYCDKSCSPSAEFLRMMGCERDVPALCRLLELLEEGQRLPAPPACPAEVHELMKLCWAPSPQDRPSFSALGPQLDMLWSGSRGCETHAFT
Sequence of JAK1 kinase activity on STAT3 in TF1 cells (P23458 whole entry): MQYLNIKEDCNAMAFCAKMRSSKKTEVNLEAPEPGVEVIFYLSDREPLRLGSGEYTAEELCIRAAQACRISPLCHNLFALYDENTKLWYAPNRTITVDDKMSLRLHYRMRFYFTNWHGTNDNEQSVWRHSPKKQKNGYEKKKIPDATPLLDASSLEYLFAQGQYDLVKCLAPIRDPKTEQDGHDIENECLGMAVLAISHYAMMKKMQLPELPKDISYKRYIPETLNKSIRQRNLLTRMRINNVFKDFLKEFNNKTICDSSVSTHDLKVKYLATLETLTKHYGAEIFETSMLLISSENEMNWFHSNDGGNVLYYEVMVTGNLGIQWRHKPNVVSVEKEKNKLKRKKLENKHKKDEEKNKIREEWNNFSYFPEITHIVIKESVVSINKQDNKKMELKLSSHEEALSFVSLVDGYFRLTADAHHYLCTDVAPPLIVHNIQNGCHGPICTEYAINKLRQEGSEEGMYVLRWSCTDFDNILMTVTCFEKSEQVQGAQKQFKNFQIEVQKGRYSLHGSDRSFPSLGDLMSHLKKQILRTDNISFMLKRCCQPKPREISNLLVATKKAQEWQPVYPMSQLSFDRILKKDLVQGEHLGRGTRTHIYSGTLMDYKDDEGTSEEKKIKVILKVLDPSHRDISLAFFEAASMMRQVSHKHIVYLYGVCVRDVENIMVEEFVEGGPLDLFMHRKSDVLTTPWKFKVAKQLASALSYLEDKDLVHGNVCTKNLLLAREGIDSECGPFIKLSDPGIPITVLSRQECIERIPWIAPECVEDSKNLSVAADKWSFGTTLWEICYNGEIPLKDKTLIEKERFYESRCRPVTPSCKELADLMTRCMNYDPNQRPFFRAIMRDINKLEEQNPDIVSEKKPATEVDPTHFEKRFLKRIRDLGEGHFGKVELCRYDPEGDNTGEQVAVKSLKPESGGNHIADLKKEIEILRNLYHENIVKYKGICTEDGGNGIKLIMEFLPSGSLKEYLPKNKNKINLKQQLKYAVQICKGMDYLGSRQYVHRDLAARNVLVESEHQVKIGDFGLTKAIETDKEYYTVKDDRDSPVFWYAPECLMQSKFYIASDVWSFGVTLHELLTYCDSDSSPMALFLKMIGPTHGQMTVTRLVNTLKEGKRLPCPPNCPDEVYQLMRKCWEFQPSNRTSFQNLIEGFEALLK
Sequence of Tyk2 kinase activity on STAT4 in NK92 cells (P29597 whole entry): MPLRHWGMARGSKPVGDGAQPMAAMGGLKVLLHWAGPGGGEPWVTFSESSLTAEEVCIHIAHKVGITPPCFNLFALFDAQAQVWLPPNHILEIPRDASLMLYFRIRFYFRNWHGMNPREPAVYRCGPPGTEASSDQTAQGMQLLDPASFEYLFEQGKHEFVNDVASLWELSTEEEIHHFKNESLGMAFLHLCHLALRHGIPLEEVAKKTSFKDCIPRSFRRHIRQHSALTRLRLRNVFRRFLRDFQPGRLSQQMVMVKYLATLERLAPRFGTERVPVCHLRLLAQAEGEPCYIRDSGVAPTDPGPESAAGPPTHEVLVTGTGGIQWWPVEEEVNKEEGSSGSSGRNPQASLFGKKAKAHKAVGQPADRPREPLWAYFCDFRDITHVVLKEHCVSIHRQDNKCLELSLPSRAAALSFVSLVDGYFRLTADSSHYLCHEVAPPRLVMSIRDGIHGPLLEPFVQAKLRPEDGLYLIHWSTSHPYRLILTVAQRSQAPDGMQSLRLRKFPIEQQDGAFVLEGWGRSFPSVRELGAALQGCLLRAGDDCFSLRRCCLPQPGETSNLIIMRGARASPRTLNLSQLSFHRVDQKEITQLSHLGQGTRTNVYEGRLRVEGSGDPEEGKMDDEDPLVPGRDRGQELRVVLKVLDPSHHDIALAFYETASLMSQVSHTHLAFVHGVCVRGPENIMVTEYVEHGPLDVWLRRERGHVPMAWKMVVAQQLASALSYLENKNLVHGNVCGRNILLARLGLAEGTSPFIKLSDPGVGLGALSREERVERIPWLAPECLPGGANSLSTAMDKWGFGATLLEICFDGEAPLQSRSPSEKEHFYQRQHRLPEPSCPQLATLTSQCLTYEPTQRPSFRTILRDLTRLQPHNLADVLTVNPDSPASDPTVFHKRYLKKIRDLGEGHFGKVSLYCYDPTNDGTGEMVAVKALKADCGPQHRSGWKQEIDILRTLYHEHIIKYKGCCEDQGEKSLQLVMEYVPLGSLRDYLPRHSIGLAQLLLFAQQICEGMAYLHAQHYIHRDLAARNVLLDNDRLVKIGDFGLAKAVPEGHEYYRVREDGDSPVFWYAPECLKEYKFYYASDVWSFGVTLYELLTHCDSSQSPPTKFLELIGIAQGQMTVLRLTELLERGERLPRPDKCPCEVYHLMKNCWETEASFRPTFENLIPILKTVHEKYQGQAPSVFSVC
T3 sequence (P23458 875-1153 limits assumed): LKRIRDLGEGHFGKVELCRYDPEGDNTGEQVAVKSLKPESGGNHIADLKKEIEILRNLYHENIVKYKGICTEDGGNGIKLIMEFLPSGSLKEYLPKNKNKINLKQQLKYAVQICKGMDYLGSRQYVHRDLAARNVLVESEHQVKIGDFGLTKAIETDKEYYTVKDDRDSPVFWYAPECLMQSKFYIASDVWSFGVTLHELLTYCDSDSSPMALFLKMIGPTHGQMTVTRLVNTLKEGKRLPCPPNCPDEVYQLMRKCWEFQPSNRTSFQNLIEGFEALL
T2 sequence (O60674 849-1124 limits assumed): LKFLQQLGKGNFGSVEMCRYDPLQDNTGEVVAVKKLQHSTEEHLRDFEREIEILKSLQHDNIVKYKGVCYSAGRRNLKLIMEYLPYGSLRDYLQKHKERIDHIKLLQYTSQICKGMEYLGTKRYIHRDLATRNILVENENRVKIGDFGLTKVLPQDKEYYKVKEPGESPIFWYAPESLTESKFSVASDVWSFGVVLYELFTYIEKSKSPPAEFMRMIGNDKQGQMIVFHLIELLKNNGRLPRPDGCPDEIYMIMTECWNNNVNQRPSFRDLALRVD

As for `C[C@@H]1CN(c2c[nH]c3ncc(-c4cnn(C)c4)cc23)C(=O)[C@]1(C#N)C1CC1` [Example 288, (3R,4S)-3-cyclopropyl-4-methyl-1-(5-(1-methyl-1H-pyrazol-4-yl)-1H-pyrrolo[2,3-b]pyridin-3-yl)-2-oxopyrrolidine-3-carbonitrile], the IC50 in assay [1] was 0.1 to 1 µM; in assay [2], under 0.1 µM; in assay [3], 0.1 to 1 µM; in assay [4] it was 0.005 to 0.02 µM; in assay [5], 1 to 5 µM; in assay [6], 1 to 5 µM. Also, in assay [7], the IC50 was in the range of 0.05 to 0.1 µM.

With `C[C@@H]1CN(c2nc(-c3cnn(C4CC5(COC5)C4)c3)cn3nccc23)C(=O)[C@]1(C#N)C1CC1` [Example 289, (3R,4S)-1-(6-(1-(2-oxaspiro[3.3]heptan-6-yl)-1H-pyrazol-4-yl)pyrazolo[1,5-a]pyrazin-4-yl)-3-cyclopropyl-4-methyl-2-oxopyrrolidine-3-carbonitrile], the IC50 in assay [1] is under 0.1 µM; in assay [2], under 0.1 µM; in assay [3], under 0.1 µM; in assay [4], under 0.005 µM; in assay [5], under 0.1 µM; in assay [6], under 0.1 µM. Besides, in assay [7], the half-inhibitory concentration (IC50) was 0.005 to 0.02 µM.

Turning to `C[C@@H]1CN(c2nc(-c3cnn(C4CC(F)(F)C4)c3)cn3nccc23)C(=O)[C@]1(C#N)C1CC1` [Example 290, (3R,4S)-3-cyclopropyl-1-(6-(1-(3,3-difluorocyclobutyl)-1H-pyrazol-4-yl)pyrazolo[1,5-a]pyrazin-4-yl)-4-methyl-2-oxopyrrolidine-3-carbonitrile], the IC50 in assay [1] was under 0.1 µM; in assay [2], under 0.1 µM; in assay [3], under 0.1 µM; in assay [4], under 0.005 µM; in assay [5], 0.1 to 1 µM; in assay [6] it was 0.1 to 1 µM. The half-inhibitory concentration (IC50) in assay [7] was 0.02 to 0.05 µM.

Consider `C[C@@H]1CN(c2nc(-c3cnn(C4COC4)c3)cn3ncc(F)c23)C(=O)[C@]1(C#N)C1CC1` [Example 291, (3R,4S)-3-cyclopropyl-1-(3-fluoro-6-(1-(oxetan-3-yl)-1H-pyrazol-4-yl)pyrazolo[1,5-a]pyrazin-4-yl)-4-methyl-2-oxopyrrolidine-3-carbonitrile], for which the concentration for half-maximal inhibition (IC50) was under 0.1 µM in assay [1]; under 0.1 µM in assay [2]; under 0.1 µM in assay [3]; under 0.005 µM in assay [4]; 1 to 5 µM in assay [5]; 1 to 5 µM in assay [6]. Moreover, in assay [7], the IC50 was in the range of 0.05 to 0.1 µM.

Turning to `C[C@@H]1CN(c2nc(-c3cnn([C@H]4C[C@@H](C#N)C4)c3)cn3ncc(F)c23)C(=O)[C@]1(C#N)C1CC1` [Example 292, (3R,4S)-1-(6-(1-((1s,3S)-3-cyanocyclobutyl)-1H-pyrazol-4-yl)-3-fluoropyrazolo[1,5-a]pyrazin-4-yl)-3-cyclopropyl-4-methyl-2-oxopyrrolidine-3-carbonitrile], the IC50 in assay [1] was under 0.1 µM; in assay [2], under 0.1 µM; in assay [3], under 0.1 µM; in assay [4], under 0.005 µM; in assay [5], 0.1 to 1 µM; in assay [6], 0.1 to 1 µM. The 50% inhibitory concentration (IC50) in assay [7] was in the range of 0.02 to 0.05 µM.

Turning to `C[C@@H]1CN(c2nc(-c3cnn([C@H]4C[C@H](C#N)C4)c3)cn3ncc(F)c23)C(=O)[C@]1(C#N)C1CC1` [Example 293, (3R,4S)-1-(6-(1-((1r,3R)-3-cyanocyclobutyl)-1H-pyrazol-4-yl)-3-fluoropyrazolo[1,5-a]pyrazin-4-yl)-3-cyclopropyl-4-methyl-2-oxopyrrolidine-3-carbonitrile], the IC50 in assay [1] is under 0.1 µM; in assay [2], under 0.1 µM; in assay [3], under 0.1 µM; in assay [4] it was under 0.005 µM; in assay [5] it was 0.1 to 1 µM; in assay [6], 0.1 to 1 µM. Moreover, the IC50 in assay [7] was 0.02 to 0.05 µM.

For the molecule `C[C@@H]1CN(c2nc(-c3cnn(-c4cccnc4)c3)cn3nccc23)C(=O)[C@]1(C#N)C1CC1` [Example 294, (3R,4S)-3-cyclopropyl-4-methyl-2-oxo-1-(6-(1-(pyridin-3-yl)-1H-pyrazol-4-yl)pyrazolo[1,5-a]pyrazin-4-yl)pyrrolidine-3-carbonitrile], the IC50 is under 0.1 µM in assay [1]; under 0.1 µM in assay [2]; under 0.1 µM in assay [3]; under 0.005 µM in assay [4]; 0.1 to 1 µM in assay [5]; 0.1 to 1 µM in assay [6]. This molecule also displayed an IC50 in assay [7] of 0.02 to 0.05 µM.

For the molecule `C[C@@H]1CN(c2nc(-c3cnn(-c4ccncc4)c3)cn3nccc23)C(=O)[C@]1(C#N)C1CC1` [Example 295, (3R,4S)-3-cyclopropyl-4-methyl-2-oxo-1-(6-(1-(pyridin-4-yl)-1H-pyrazol-4-yl)pyrazolo[1,5-a]pyrazin-4-yl)pyrrolidine-3-carbonitrile], the IC50 in assay [1] is under 0.1 µM; in assay [2] it was under 0.1 µM; in assay [3], under 0.1 µM; in assay [4], under 0.005 µM; in assay [5], 0.1 to 1 µM; in assay [6] it was 0.1 to 1 µM. This molecule returned an IC50 in assay [7] of 0.02 to 0.05 µM.

Regarding `C[C@@H]1CN(c2nc(-c3cnn(-c4ccccn4)c3)cn3nccc23)C(=O)[C@]1(C#N)C1CC1` [Example 296, (3R,4S)-3-cyclopropyl-4-methyl-2-oxo-1-(6-(1-(pyridin-2-yl)-1H-pyrazol-4-yl)pyrazolo[1,5-a]pyrazin-4-yl)pyrrolidine-3-carbonitrile], the 50% inhibitory concentration (IC50) in assay [1] was under 0.1 µM; in assay [2], 0.1 to 1 µM; in assay [3], under 0.1 µM; in assay [4], under 0.005 µM; in assay [5], 0.1 to 1 µM; in assay [6], 1 to 5 µM. Besides, the 50% inhibitory concentration (IC50) in assay [7] lay in the range of 0.02 to 0.05 µM.

Consider `C[C@@H]1CN(c2nc(-c3cnn(C45CC(C#N)(C4)C5)c3)cn3ncc(F)c23)C(=O)[C@]1(C#N)C1CC1` [Example 297, (3R,4S)-1-(6-(1-(3-cyanobicyclo[1.1.1]pentan-1-yl)-1H-pyrazol-4-yl)-3-fluoropyrazolo[1,5-a]pyrazin-4-yl)-3-cyclopropyl-4-methyl-2-oxopyrrolidine-3-carbonitrile], for which the IC50 is under 0.1 µM in assay [1]; under 0.1 µM in assay [2]; under 0.1 µM in assay [3]; under 0.005 µM in assay [4]; 1 to 5 µM in assay [5]; 1 to 5 µM in assay [6]. In assay [7], this molecule registered a 50% inhibitory concentration (IC50) of over 0.1 µM.

For `C[C@@H]1CN(c2nc(-c3cnn(C4CC5(COC5)C4)c3)cn3ncc(F)c23)C(=O)[C@]1(C#N)C1CC1` [Example 298, (3R,4S)-1-(6-(1-(2-oxaspiro[3.3]heptan-6-yl)-1H-pyrazol-4-yl)-3-fluoropyrazolo[1,5-a]pyrazin-4-yl)-3-cyclopropyl-4-methyl-2-oxopyrrolidine-3-carbonitrile], the half-inhibitory concentration (IC50) in assay [1] is under 0.1 µM; in assay [2], under 0.1 µM; in assay [3] it was under 0.1 µM; in assay [4] it was under 0.005 µM; in assay [5], 0.1 to 1 µM; in assay [6], 0.1 to 1 µM. This molecule had an IC50 in assay [7] of 0.05 to 0.1 µM.

For the molecule `CO[C@H]1C[C@H](n2cc(-c3cn4ncc(F)c4c(N4C[C@@H](C)[C@@](C#N)(C5CC5)C4=O)n3)cn2)C1` [Example 299, (3R,4S)-3-cyclopropyl-1-(3-fluoro-6-(1-((1r,3R)-3-methoxycyclobutyl)-1H-pyrazol-4-yl)pyrazolo[1,5-a]pyrazin-4-yl)-4-methyl-2-oxopyrrolidine-3-carbonitrile], the IC50 is under 0.1 µM in assay [1]; under 0.1 µM in assay [2]; under 0.1 µM in assay [3]; under 0.005 µM in assay [4]; 0.1 to 1 µM in assay [5]; 0.1 to 1 µM in assay [6]. Moreover, the IC50 in assay [7] was 0.05 to 0.1 µM.

Take `C[C@@H]1CN(c2nc(-c3cnn(C4(C)COC4)c3)cn3ncc(F)c23)C(=O)[C@]1(C#N)C1CC1` [Example 300, (3R,4S)-3-cyclopropyl-1-(3-fluoro-6-(1-(3-methyloxetan-3-yl)-1H-pyrazol-4-yl)pyrazolo[1,5-a]pyrazin-4-yl)-4-methyl-2-oxopyrrolidine-3-carbonitrile]: the IC50 in assay [1] was under 0.1 µM; in assay [2], 0.1 to 1 µM; in assay [3], under 0.1 µM; in assay [4], under 0.005 µM; in assay [5], 0.1 to 1 µM; in assay [6], 1 to 5 µM. Besides, the half-maximal inhibitory concentration (IC50) in assay [7] was over 0.1 µM.
